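Interpolation was linear, between the two tested concentrations surrounding the appropriate level; five concentrations were tested over 48 hours in 96-well plates. At the TGI there is no net growth.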
How the values were obtained:
Assay in all cases: DTP human tumour cell line panel, 48 h
[1] = system: ACHN renal
[2] = system: CAKI-1 renal
[3] = system: CCRF-CEM leukemia
[4] = system: EKVX NSCLC
[5] = system: HL-60(TB) leukemia
[6] = system: HT29 colon
[7] = system: M14 melanoma
[8] = system: OVCAR-5 ovarian
[9] = system: SN12C renal
[10] = system: UACC-62 melanoma

| Compound | TGI [1] | TGI [2] | TGI [3] | TGI [4] | TGI [5] | TGI [6] | TGI [7] | TGI [8] | TGI [9] | TGI [10] |
| --- | --- | --- | --- | --- | --- | --- | --- | --- | --- | --- |
| CCN1CCC(O)(c2ccc(Oc3ccc(C)cc3)cc2)C(C(=O)c2ccc(Oc3ccc(C)cc3)cc2)C1 (stereo not given) | 25.9 µM | 25.8 µM | 21.8 µM | 29 µM | 3.7 µM | 14.2 µM | 30.6 µM | 32.1 µM | 30.7 µM | 24.5 µM |
| c1ccc2c(c1)CC1COc3ccccc3C1O2 (stereo not given) | > 100 µM | > 100 µM | > 100 µM | > 100 µM | > 100 µM | > 100 µM | > 100 µM | > 100 µM | > 100 µM | > 100 µM |
| c1ccc(-c2cc(-c3cccs3)c(-c3cccs3)o2)cc1 | > 100 µM | > 100 µM | > 100 µM | > 100 µM | > 100 µM | > 100 µM | > 100 µM | > 100 µM | > 100 µM | > 100 µM |
| CC(=O)N1c2ccccc2C(C)C1c1[nH]c2ccccc2c1C (stereo not given) | > 100 µM | 70.6 µM | > 100 µM | > 100 µM | 44.4 µM | 57.1 µM | 42.5 µM | 34 µM | 33.9 µM | 48.9 µM |
| CC(=O)OCC1=C(C)C[C@H]([C@@H](COC(C)=O)C2CCC3C4C[C@H]5O[C@]56CC=CC(=O)[C@]6(C)C4CC[C@@]32C)OC1=O (stereo not given in full) | 2.68 µM | 2.64 µM | 0.353 µM | 1.36 µM | 0.198 µM | 0.508 µM | 0.785 µM | 3.13 µM | 1.18 µM | 0.976 µM |
| COc1ccc2cc(C(=O)NCCCNC(=O)c3ccc4cc(OC)ccc4c3)ccc2c1 | > 100 µM | > 100 µM | > 100 µM | > 100 µM | > 100 µM | > 100 µM | > 100 µM | > 100 µM | > 100 µM | > 100 µM |
